Test results: patent US20150105252A1, “SUBSTITUTED PYRAZOLES AS HERBICIDES” (E I DU PONT DE NEMOURS AND COMPANY, priority 2013, published 2015)

Columns and labels:
ducksalad = test: Test B flood; format: in vivo, Heteranthera limosa; settings: 250 g ai/ha, visual rating on 0 to 100 scale (0 no effect, 100 complete control), 13 to 15 days
Procedure, shortened: (§1)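 Paddy-water application: seedlings at 2-leaf stage, flood depth 3 cm maintained for the test duration. Evaluation after 13–15 days in the greenhouse by eye relative to controls; 0–100 scale.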

wheat = test: Test A preemergence; format: in vivo, Triticum aestivum; settings: preemergence
Procedure, shortened: (§2)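 Visual injury rating, 0–100 (0 no effect, 100 complete control), vs untreated controls ~10 days after treatment in greenhouse. Pre: directed soil spray on seeded loam/sand. Post: 2–10 cm plants, 1–2 leaf stage. Formulation: non-phytotoxic solvent mix + surfactant.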

soybean = test: Test C preemergence; format: in vivo, Glycine max; settings: for Plant response rating (scale of 0 to 100), Soybean: Preemergence, 250 g ai/ha; for Soybean plant response rating / Plant response rating, Soybean: preemergence; for Plant response rating, Soybean: scale 0 to 100, 0 = no effect, 100 = complete control
Procedure, shortened: (§3)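 Herbicidal effect is expressed as percent visual control (0–100) judged against untreated plants 13 to 15 days after treatment in the greenhouse. Preemergence pots contained seeds in a soil–sand blend; postemergence plants, 2–18 cm tall, grew in peat-based planting medium.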

foxtail, giant [1] = test: Test A preemergence; format: in vivo, Setaria faberii; settings: preemergence
Procedure, shortened: as §2

ryegrass, Italian = test: Test C preemergence; format: in vivo, Lolium multiflorum; settings: for Plant response rating (scale of 0 to 100), Ryegrass, Italian: Preemergence, 250 g ai/ha; for Ryegrass, Italian plant response rating / Plant response rating, Ryegrass, Italian: preemergence; for Plant response rating, Ryegrass, Italian: scale 0 to 100, 0 = no effect, 100 = complete control
Procedure, shortened: as §3

ragweed = test: Test C preemergence; format: in vivo, Ambrosia elation; settings: for Plant response rating (scale of 0 to 100), Ragweed: Preemergence, 250 g ai/ha; for Ragweed plant response rating / Plant response rating, Ragweed: preemergence; for Plant response rating, Ragweed: scale 0 to 100, 0 = no effect, 100 = complete control
Procedure, shortened: as §3

nutsedge, yellow = test: Test C preemergence; format: in vivo, Cyperus esculentus; settings: for Plant response rating (scale of 0 to 100), Nutsedge, Yellow: Preemergence, 250 g ai/ha; for Nutsedge, Yellow plant response rating / Plant response rating, Nutsedge, Yellow: preemergence; for Plant response rating, Nutsedge, Yellow: scale 0 to 100, 0 = no effect, 100 = complete control
Procedure, shortened: as §3

foxtail, giant [2] = test: Test A postemergence; format: in vivo, Setaria faberii
Procedure, shortened: as §2

johnsongrass = test: Test C preemergence; format: in vivo, Sorghum halepense; settings: for Plant response rating (scale of 0 to 100), Johnsongrass: Preemergence, 250 g ai/ha; for Johnsongrass plant response rating / Plant response rating, Johnsongrass: preemergence; for Plant response rating, Johnsongrass: scale 0 to 100, 0 = no effect, 100 = complete control
Procedure, shortened: as §3

sedge, umbrella = test: Test B flood; format: in vivo, Cyperus difformis; settings: 250 g ai/ha, visual rating on 0 to 100 scale (0 no effect, 100 complete control), 13 to 15 days
Procedure, shortened: as §1

morningglory = test: Test A postemergence; format: in vivo, Ipomoea spp.
Procedure, shortened: as §2

corn = test: Test A postemergence; format: in vivo, Zea mays
Procedure, shortened: as §2

barnyardgrass = test: Test C preemergence; format: in vivo, Echinochloa crus-galli; settings: for Plant response rating (scale of 0 to 100), Barnyardgrass: Preemergence, 250 g ai/ha; for Barnyardgrass plant response rating / Plant response rating, Barnyardgrass: preemergence; for Plant response rating, Barnyardgrass: scale 0 to 100, 0 = no effect, 100 = complete control
Procedure, shortened: as §3

galium = test: Test C preemergence; format: in vivo, Galium aparine; settings: for Plant response rating (scale of 0 to 100), Galium: Preemergence, 250 g ai/ha; for Galium plant response rating / Plant response rating, Galium: preemergence; for Plant response rating, Galium: scale 0 to 100, 0 = no effect, 100 = complete control
Procedure, shortened: as §3

[3] = 125 g ai/ha, visual injury, 0 to 100 scale, approx. 10 days
[4] = 500 g ai/ha, visual injury after approx. 10 days, 0 to 100 scale (0 no effect, 100 complete control)
[5] = 31 g ai/ha, visual rating, scale 0 to 100 (0 no effect, 100 complete control), 13 to 15 days
[6] = 125 g ai/ha, scale 0 to 100, 0 is no effect, 100 is complete control
[7] = Postemergence, 500 g ai/ha, visual rating after approx. 10 days, 0 to 100 scale (0 no effect, 100 complete control)
[8] = postemergence, 125 g ai/ha, about 10 days, visual rating on 0 to 100 scale (0 no effect, 100 complete control)
[9] = 31 g ai/ha, scale 0 to 100 (0 no effect, 100 complete control), 13 to 15 days
[10] = 62 g ai/ha, scale 0 to 100 (0 no effect, 100 complete control), 13 to 15 days
[11] = Postemergence, 500 g ai/ha, 0 to 100 scale (0 no effect, 100 complete control)

SMILES	Plant response rating, Ducksalad (ducksalad)	Wheat plant response rating (wheat; [3])	Wheat plant response rating (wheat; [4])	Plant response rating (scale of 0 to 100), Soybean (soybean)	Soybean plant response rating (soybean; [5])	Foxtail, Giant plant response rating (foxtail, giant [1]; [3])	Foxtail, Giant plant response rating (foxtail, giant [1]; [4])	Plant response rating (scale of 0 to 100), Ryegrass, Italian (ryegrass, Italian)	Ryegrass, Italian plant response rating (ryegrass, Italian; [5])	Plant response rating (scale of 0 to 100), Ragweed (ragweed)	Ragweed plant response rating (ragweed; [5])	Plant response rating (scale of 0 to 100), Nutsedge, Yellow (nutsedge, yellow)	Nutsedge, Yellow plant response rating (nutsedge, yellow; [5])	Foxtail, Giant plant response rating (foxtail, giant [2]; [8])	Plant response rating (scale of 0 to 100), Johnsongrass (johnsongrass)	Johnsongrass plant response rating (johnsongrass; [5])	Plant response rating, Sedge, Umbrella (sedge, umbrella)	Morningglory plant response rating (morningglory; [8])	Corn plant response rating (corn; [8])	Plant response rating (scale of 0 to 100), Barnyardgrass (barnyardgrass)	further results
CCOc1cc(C(=O)NCC(F)(F)F)nn1Cc1ccnc(C(F)(F)F)c1 [Compound 104]	0	90	100	98	85	100	100	95	80	100	98	98	70	90	100	90	0	100	90	100	Plant response rating, Soybean (soybean; 62 g ai/ha, 13 to 15 days): 95; Soybean plant response rating (soybean; [6]): 98; Plant response rating, Ryegrass, Italian (ryegrass, Italian; 62 g ai/ha, 13 to 15 days): 90; Ryegrass, Italian plant response rating (ryegrass, Italian; [6]): 95; Plant response rating, Ragweed (ragweed; 62 g ai/ha, 13 to 15 days): 100; Ragweed plant response rating (ragweed; [6]): 100; Plant response rating, Nutsedge, Yellow (nutsedge, yellow; 62 g ai/ha, 13 to 15 days): 95; Nutsedge, Yellow plant response rating (nutsedge, yellow; [6]): 98; Foxtail, Giant plant response rating (foxtail, giant [2]; [7]): 90; Plant response rating, Johnsongrass (johnsongrass; 62 g ai/ha, 13 to 15 days): 100; Johnsongrass plant response rating (johnsongrass; [6]): 100; Morningglory plant response rating (morningglory; [7]): 100; Corn plant response rating (corn; [7]): 100; Barnyardgrass plant response rating (barnyardgrass; [9]): 100; Plant response rating, Barnyardgrass (barnyardgrass; 62 g ai/ha, 13 to 15 days): 100; Barnyardgrass plant response rating (barnyardgrass; [6]): 100; Plant response rating (scale of 0 to 100), Galium (galium): 100; Galium plant response rating (galium; [5]): 90; Plant response rating, Galium (galium; 62 g ai/ha, 13 to 15 days): 98; Galium plant response rating (galium; [6]): 100
CCCc1cc(C(=O)NCC(F)(F)F)nn1Cc1ccnc(C(F)(F)F)c1 [Compound 105]	95	60	100	95	70	100	100	95	85	98	98	95	50	100	100	80	95	100	80	100	Soybean plant response rating (soybean; [10]): 70; Soybean plant response rating (soybean; [6]): 95; Ryegrass, Italian plant response rating (ryegrass, Italian; [10]): 95; Ryegrass, Italian plant response rating (ryegrass, Italian; [6]): 95; Ragweed plant response rating (ragweed; [10]): 98; Ragweed plant response rating (ragweed; [6]): 98; Nutsedge, Yellow plant response rating (nutsedge, yellow; [10]): 85; Nutsedge, Yellow plant response rating (nutsedge, yellow; [6]): 95; Foxtail, Giant plant response rating (foxtail, giant [2]; [7]): 100; Johnsongrass plant response rating (johnsongrass; [10]): 95; Johnsongrass plant response rating (johnsongrass; [6]): 100; Morningglory plant response rating (morningglory; [7]): 100; Corn plant response rating (corn; [7]): 100; Barnyardgrass plant response rating (barnyardgrass; [9]): 98; Barnyardgrass plant response rating (barnyardgrass; [10]): 100; Barnyardgrass plant response rating (barnyardgrass; [6]): 100; Plant response rating (scale of 0 to 100), Galium (galium): 100; Galium plant response rating (galium; [5]): 100; Galium plant response rating (galium; [10]): 100; Galium plant response rating (galium; [6]): 100
CCCc1cc(C(=O)NCC)nn1Cc1cc(C(F)(F)F)nn1C [Compound 129]	95	50	100	98	40	100	100	95	5	100	85	75	5	80	100	10	95	90	50	100	Soybean plant response rating (soybean; [10]): 55; Plant response rating, Soybean (soybean; 125 g ai/ha, 13 to 15 days): 98; Ryegrass, Italian plant response rating (ryegrass, Italian; [10]): 90; Plant response rating, Ryegrass, Italian (ryegrass, Italian; 125 g ai/ha, 13 to 15 days): 95; Ragweed plant response rating (ragweed; [10]): 90; Plant response rating, Ragweed (ragweed; 125 g ai/ha, 13 to 15 days): 98; Nutsedge, Yellow plant response rating (nutsedge, yellow; [10]): 25; Plant response rating, Nutsedge, Yellow (nutsedge, yellow; 125 g ai/ha, 13 to 15 days): 60; Foxtail, Giant plant response rating (foxtail, giant [2]; [11]): 90; Johnsongrass plant response rating (johnsongrass; [10]): 70; Plant response rating, Johnsongrass (johnsongrass; 125 g ai/ha, 13 to 15 days): 98; Morningglory plant response rating (morningglory; [11]): 100; Corn plant response rating (corn; [11]): 80; Barnyardgrass plant response rating (barnyardgrass; [9]): 95; Barnyardgrass plant response rating (barnyardgrass; [10]): 100; Plant response rating, Barnyardgrass (barnyardgrass; 125 g ai/ha, 13 to 15 days): 100; Plant response rating (scale of 0 to 100), Galium (galium): 100; Galium plant response rating (galium; [5]): 100; Galium plant response rating (galium; [10]): 100; Plant response rating, Galium (galium; 125 g ai/ha, 13 to 15 days): 95
CCNC(=O)c1cc(CC)n(Cc2ccnc(OC(F)F)c2)n1 [Compound 130]	90	10	90	98	10	100	100	98	5	100	70	75	25	60	95	35	90	90	70	100	Soybean plant response rating (soybean; [10]): 55; Plant response rating, Soybean (soybean; 125 g ai/ha, 13 to 15 days): 90; Ryegrass, Italian plant response rating (ryegrass, Italian; [10]): 25; Plant response rating, Ryegrass, Italian (ryegrass, Italian; 125 g ai/ha, 13 to 15 days): 65; Ragweed plant response rating (ragweed; [10]): 100; Plant response rating, Ragweed (ragweed; 125 g ai/ha, 13 to 15 days): 100; Nutsedge, Yellow plant response rating (nutsedge, yellow; [10]): 65; Plant response rating, Nutsedge, Yellow (nutsedge, yellow; 125 g ai/ha, 13 to 15 days): 75; Foxtail, Giant plant response rating (foxtail, giant [2]; [11]): 90; Johnsongrass plant response rating (johnsongrass; [10]): 65; Plant response rating, Johnsongrass (johnsongrass; 125 g ai/ha, 13 to 15 days): 75; Morningglory plant response rating (morningglory; [11]): 100; Corn plant response rating (corn; [11]): 90; Barnyardgrass plant response rating (barnyardgrass; [9]): 50; Barnyardgrass plant response rating (barnyardgrass; [10]): 85; Plant response rating, Barnyardgrass (barnyardgrass; 125 g ai/ha, 13 to 15 days): 100; Plant response rating (scale of 0 to 100), Galium (galium): 100; Galium plant response rating (galium; [5]): 75; Galium plant response rating (galium; [10]): 85; Plant response rating, Galium (galium; 125 g ai/ha, 13 to 15 days): 98
